Legend:
[1] = Preservation of quercetin-containing insulin hexameric complexes by small phenolic compounds; assay type: physicochemical; settings: as small phenolic compound
insulin = insulin (Homo sapiens, UniProt P01308); settings: does not require zinc ions; read-out: dissociation constant Kd of dimerization; cited from earlier work
insulin, sequence (P01308 25-54 limits assumed): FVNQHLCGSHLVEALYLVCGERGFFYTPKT
insulin, sequence (P01308 90-110 limits assumed): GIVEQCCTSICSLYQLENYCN

## O=C([O-])c1ccccc1.[Na+] [sodium benzoate]
[1]
  preservation of insulin hexameric complexes that contained quercetin: better preserve insulin hexameric complexes

## O=C(O)c1ccc(O)cc1 [4-hydroxybenzoic acid]
[1]
  preservation of insulin hexameric complexes that contained quercetin: better preserve insulin hexameric complexes

## insulin: anabolic hormone of A-chain and B-chain linked by disulfide bonds
insulin
  Kd: ~10 µM
